In ChEMBL document CHEMBL4152366, “Design, synthesis, and biological evaluation of novel selective peptide inhibitors of 11β-hydroxysteroid dehydrogenase 1” (Bioorg Med Chem, 2018):

How the values were obtained:
[1] = target: T1, 11-beta-hydroxysteroid dehydrogenase 1 (Homo sapiens, UniProt P28845); experiment: Inhibition of human 11beta-HSD1 expressed in HEK293 cell lysates using radiolabeled cortisone as substrate incubated for 10 mins by scintillation counting method
Target sequence in this assay (P28845 whole entry): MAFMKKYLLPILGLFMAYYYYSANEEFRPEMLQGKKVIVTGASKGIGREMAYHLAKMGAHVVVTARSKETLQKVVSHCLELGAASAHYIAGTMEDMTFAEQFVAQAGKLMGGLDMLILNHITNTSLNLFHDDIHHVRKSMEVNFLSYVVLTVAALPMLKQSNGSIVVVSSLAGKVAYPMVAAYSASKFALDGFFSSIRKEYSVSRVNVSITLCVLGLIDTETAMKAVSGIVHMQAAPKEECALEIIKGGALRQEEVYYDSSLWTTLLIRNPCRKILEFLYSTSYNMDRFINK

[2] = target: T1, 11-beta-hydroxysteroid dehydrogenase 1; experiment: Inhibition of 11beta-HSD1 in human primary keratinocytes assessed as reduction in conversion of […] incubated for 48 hrs by enzyme immunoassay; type: cell-based
Target sequence in this assay (P28845 whole entry, looked up): as the sequence (P28845 whole entry) above

[3] = target: T2, 17-beta-hydroxysteroid dehydrogenase type 1 (Homo sapiens) (UniProt P14061); experiment: Inhibition of human 17beta-HSD1 expressed in HEK293 cell lysates assessed as remaining enzyme activity at 1 uM using radiolabeled estrone as substrate incubated for 10 mins by scintillation counting method relative to control; values are per cent of control
T2 sequence (whole entry): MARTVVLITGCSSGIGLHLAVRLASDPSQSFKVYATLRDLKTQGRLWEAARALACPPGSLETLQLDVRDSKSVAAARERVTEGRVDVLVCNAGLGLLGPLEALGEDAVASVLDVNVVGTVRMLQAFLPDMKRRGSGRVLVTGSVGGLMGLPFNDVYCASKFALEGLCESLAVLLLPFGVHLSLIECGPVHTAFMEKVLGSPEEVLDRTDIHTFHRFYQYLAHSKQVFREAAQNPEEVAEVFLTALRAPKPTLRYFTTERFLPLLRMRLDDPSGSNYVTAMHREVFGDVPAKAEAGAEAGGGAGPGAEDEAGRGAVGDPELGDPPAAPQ

[4] = target: T3, 17-beta-hydroxysteroid dehydrogenase type 2 (Homo sapiens) (UniProt P37059); experiment: Inhibition of human 17beta-HSD2 expressed in HEK293 cell lysates assessed as remaining enzyme activity at 1 uM using radiolabeled estradiol as substrate incubated for 10 mins by scintillation counting method relative to control; values are per cent of control
T3 sequence (whole entry): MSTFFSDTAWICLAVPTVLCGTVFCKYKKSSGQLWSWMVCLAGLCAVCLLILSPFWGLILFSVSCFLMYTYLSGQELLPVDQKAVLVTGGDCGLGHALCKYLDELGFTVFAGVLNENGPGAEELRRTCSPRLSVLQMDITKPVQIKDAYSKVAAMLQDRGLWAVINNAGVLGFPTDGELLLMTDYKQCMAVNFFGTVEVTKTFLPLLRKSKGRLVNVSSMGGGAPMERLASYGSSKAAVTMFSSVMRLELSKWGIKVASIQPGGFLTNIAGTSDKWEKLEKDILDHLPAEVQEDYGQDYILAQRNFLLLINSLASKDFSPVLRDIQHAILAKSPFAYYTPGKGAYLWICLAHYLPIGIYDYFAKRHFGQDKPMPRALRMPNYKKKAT

[5] = target: T4, 11-beta-hydroxysteroid dehydrogenase type 2 (Homo sapiens) (UniProt P80365); experiment: Inhibition of human 11beta-HSD2 expressed in HEK293 cell lysates assessed as remaining enzyme activity at 1 uM using radiolabeled cortisol as substrate incubated for 10 mins in presence of NAD+ by scintillation counting method relative to control; values are per cent of control
T4 sequence (whole entry): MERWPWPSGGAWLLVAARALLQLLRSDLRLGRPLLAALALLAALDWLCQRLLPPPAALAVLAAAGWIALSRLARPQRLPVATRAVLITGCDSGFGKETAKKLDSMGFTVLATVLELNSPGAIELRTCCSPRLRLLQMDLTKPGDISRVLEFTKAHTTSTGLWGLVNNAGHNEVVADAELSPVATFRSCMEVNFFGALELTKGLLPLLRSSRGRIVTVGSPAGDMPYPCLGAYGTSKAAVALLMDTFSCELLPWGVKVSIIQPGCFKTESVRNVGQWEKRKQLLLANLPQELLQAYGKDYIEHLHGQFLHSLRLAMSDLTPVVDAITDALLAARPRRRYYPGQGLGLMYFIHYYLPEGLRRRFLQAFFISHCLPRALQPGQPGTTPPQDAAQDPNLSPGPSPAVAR

[6] = target: T1, 11-beta-hydroxysteroid dehydrogenase 1; experiment: Inhibition of 11beta-HSD1 in human skin assessed as reversal of cortisone-mediated decrease in dermal total collagen content at 200 uM by picrosirius red histochemical staining based assay
Target sequence in this assay (P28845 whole entry, looked up): as the sequence (P28845 whole entry) above

[7] = target: T1, 11-beta-hydroxysteroid dehydrogenase 1; experiment: Inhibition of 11beta-HSD1 in human skin assessed as reversal of cortisone-mediated decrease in dermal total collagen content at 10 to 100 uM by picrosirius red histochemical staining based assay
Target sequence in this assay (P28845 whole entry, looked up): as the sequence (P28845 whole entry) above

[8] = target: T1, 11-beta-hydroxysteroid dehydrogenase 1; experiment: Inhibition of 11beta-HSD1 in human skin assessed as reversal of cortisone-mediated decrease in dermal total collagen content by picrosirius red histochemical staining based assay
Target sequence in this assay (P28845 whole entry, looked up): as the sequence (P28845 whole entry) above

Row | IC50 [1] [nM] | inhibition [2] | residual activity [3] [%] | residual activity [4] [%] | residual activity [5] [%] | inhibition [6] [%] | inhibition [7] [%] | inhibition [8] | Compound
1 | 266 | Dose-dependent effect | > 90 | > 90 | > 90 |  |  |  | CC(=O)N[C@@H](Cc1ccc(F)cc1)C(=O)N1CCC[C@@H]1C(=O)NC1C2CC3CC(C2)CC1C3 (stereo partly drawn)
2 | 373 | Dose-dependent effect | > 90 | > 90 | > 90 |  |  |  | CCOc1ccc(C[C@H](N)C(=O)N2CCC[C@@H]2C(=O)NC2C3CC4CC(C3)CC2C4)cc1 (stereo partly drawn)
3 | 197 | Dose-dependent effect | > 90 | > 90 | > 90 | 100 | 18 | Dose-dependent effect | CC(=O)N[C@@H](Cc1ccc(C#N)cc1)C(=O)N1CCC[C@@H]1C(=O)NC1C2CC3CC(C2)CC1C3 (stereo partly drawn)
